According to patent US10294202B2, “Pyrrolidinones as herbicides” (FMC Corporation, priority 2013, dated 2019):

Assays:
pigweed = test: Test A pre-/postemergence herbicide test; type: in vivo, Amaranthus retroflexus
Outline: (§1)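 Both application timings used compounds in a non-phytotoxic solvent plus surfactant. Pre-emergence: soil sprayed directly after seeding into loam/sand. Post-emergence: foliage of 2–10 cm seedlings (1–2 leaves) sprayed. Injury rated ~10 days later, 0–100.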

barnyardgrass [1] = test: Test A pre-/postemergence herbicide test; type: in vivo, Echinochloa crus-galli
Outline: as §1

ducksalad = test: Test B flooded paddy test; type: in vivo, Heteranthera limosa; settings: Flood, scale of 0 to 100 where 0 is no effect and 100 is complete control
Protocol: (§2) Plant species in the flooded paddy test selected from rice (Oryza sativa), sedge, umbrella (small-flower umbrella sedge, Cyperus difformis), ducksalad (Heteranthera limosa), and barnyardgrass (Echinochloa crus-galli) were grown to the 2-leaf stage for testing. At time of treatment, test pots were flooded to 3 cm above the soil surface, treated by application of test compounds directly to the paddy water, and then maintained at that water depth for the duration of the test. Treated plants and controls were maintained in a greenhouse for 13 to 15 days, after which time all species were compared to controls and visually evaluated. Plant response ratings, summarized in Table B, are based on a scale of 0 to 100 where 0 is no effect and 100 is complete control. A dash (-) response means no test result.

corn = test: Test A pre-/postemergence herbicide test; type: in vivo, Zea mays
Outline: as §1

sedge, umbrella = test: Test B flooded paddy test; type: in vivo, Cyperus difformis; settings: Flood, scale of 0 to 100 where 0 is no effect and 100 is complete control
Outline: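 2-leaf plants; flood 3 cm over soil; compound into paddy water; depth held. Greenhouse 13–15 d. Visual rating vs controls, 0 (no effect) to 100 (complete control); dash = not tested.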

wheat = test: Test A pre-/postemergence herbicide test; type: in vivo, Triticum aestivum
Outline: as §1

giant foxtail = test: Test A pre-/postemergence herbicide test; type: in vivo, Setaria faberii
Outline: as §1

morningglory = test: Test A pre-/postemergence herbicide test; type: in vivo, Ipomoea spp.
Outline: as §1

barnyardgrass [2] = test: Test B flooded paddy test; type: in vivo, Echinochloa crus-galli; settings: Flood, scale of 0 to 100 where 0 is no effect and 100 is complete control
Protocol: as §2

rice = test: Test B flooded paddy test; type: in vivo, Oryza sativa; settings: Flood, scale of 0 to 100 where 0 is no effect and 100 is complete control
Protocol: as §2

crabgrass, large = test: Test A pre-/postemergence herbicide test; type: in vivo, Digitaria sanguinalis
Outline: as §1

velvetleaf = test: Test A pre-/postemergence herbicide test; type: in vivo, Abutilon theophrasti
Outline: as §1

[3] = Postemergence, 500 g ai/ha, 0 to 100 scale (0 no effect, 100 complete control)
[4] = Preemergence, 125 g ai/ha, 0 to 100 scale where 0 is no effect and 100 is complete control
[5] = preemergence, 500 g ai/ha, 0 to 100 scale, 0 is no effect and 100 is complete control
[6] = Postemergence, 125 g ai/ha, 0 to 100 scale, 0 is no effect, 100 is complete control
[7] = Postemergence, 125 g ai/ha, 0 to 100 scale, 0 no effect, 100 complete control
[8] = Preemergence, 125 g ai/ha, visual rating on 0 to 100 scale (0 no effect, 100 complete control)
[9] = preemergence, 500 g ai/ha, 0 to 100 scale

## O=C1NCC(c2ccc(C(F)(F)F)nc2)C1C(=O)Nc1ccccc1C(F)(F)F (racemic) [Compound 264]
pigweed; [3]
  Plant response rating, Pigweed: 60
pigweed; [4]
  Plant response rating, Pigweed: 50
pigweed; [5]
  Plant response rating, Pigweed: 80
Barnyardgrass [1]; [6]
  Plant response rating, Barnyardgrass: 30
Barnyardgrass [1]; [3]
  Plant response rating, Barnyardgrass: 80
Barnyardgrass [1]; [4]
  Plant response rating, Barnyardgrass: 50
Barnyardgrass [1]; [5]
  Plant response rating, Barnyardgrass: 90
ducksalad; 1000 g ai/ha
  Plant response rating, Ducksalad: 100
corn; [6]
  Plant response rating, Corn: 0
corn; [3]
  Plant response rating, Corn: 0
corn; [4]
  Plant response rating, Corn: 0
corn; [5]
  Plant response rating, Corn: 0
sedge, umbrella; 1000 g ai/ha
  Plant response rating, Sedge, Umbrella: 0
wheat; [3]
  Plant response rating, Wheat: 0
wheat; [4]
  Plant response rating, Wheat: 0
wheat; [5]
  Plant response rating, Wheat: 0
Giant foxtail; [6]
  Plant response rating, Foxtail, Giant: 60
Giant foxtail; [3]
  Plant response rating, Foxtail, Giant: 80
Giant foxtail; [4]
  Plant response rating, Foxtail, Giant: 80
Giant foxtail; [5]
  Plant response rating, Foxtail, Giant: 90
morningglory; [3]
  Plant response rating, Morningglory: 0
morningglory; [4]
  Plant response rating, Morningglory: 0
morningglory; [5]
  Plant response rating, Morningglory: 0
Barnyardgrass [2]; 1000 g ai/ha
  Plant response rating, Barnyardgrass: 0
rice; 1000 g ai/ha
  Plant response rating, Rice: 0
crabgrass, large; [6]
  Plant response rating, Crabgrass, Large: 80
crabgrass, large; [3]
  Plant response rating, Crabgrass, Large: 90
crabgrass, large; [4]
  Plant response rating, Crabgrass, Large: 100
crabgrass, large; [5]
  Plant response rating, Crabgrass, Large: 100
velvetleaf; [3]
  Plant response rating, Velvetleaf: 30
velvetleaf; [4]
  Plant response rating, Velvetleaf: 0
velvetleaf; [5]
  Plant response rating, Velvetleaf: 0

## O=C1NCC(c2ccc(C(F)(F)F)c(Cl)c2)C1C(=O)Nc1cccc(F)c1F (racemic) [Compound 250]
pigweed; [6]
  Plant response rating, Pigweed: 0
pigweed; [3]
  Plant response rating, Pigweed: 0
pigweed; [4]
  Plant response rating, Pigweed: 0
pigweed; [5]
  Plant response rating, Pigweed: 0
Barnyardgrass [1]; [6]
  Plant response rating, Barnyardgrass: 30
Barnyardgrass [1]; [3]
  Plant response rating, Barnyardgrass: 50
Barnyardgrass [1]; [4]
  Plant response rating, Barnyardgrass: 20
Barnyardgrass [1]; [5]
  Plant response rating, Barnyardgrass: 80
ducksalad; 1000 g ai/ha
  Plant response rating, Ducksalad: 80
corn; [6]
  Plant response rating, Corn: 0
corn; [3]
  Plant response rating, Corn: 0
corn; [4]
  Plant response rating, Corn: 0
corn; [5]
  Plant response rating, Corn: 0
sedge, umbrella; 1000 g ai/ha
  Plant response rating, Sedge, Umbrella: 0
wheat; [6]
  Plant response rating, Wheat: 0
wheat; [3]
  Plant response rating, Wheat: 0
wheat; [4]
  Plant response rating, Wheat: 0
wheat; [5]
  Plant response rating, Wheat: 0
Giant foxtail; [6]
  Plant response rating, Foxtail, Giant: 30
Giant foxtail; [3]
  Plant response rating, Foxtail, Giant: 50
Giant foxtail; [4]
  Plant response rating, Foxtail, Giant: 50
Giant foxtail; [5]
  Plant response rating, Foxtail, Giant: 80
morningglory; [6]
  Plant response rating, Morningglory: 0
morningglory; [3]
  Plant response rating, Morningglory: 0
morningglory; [4]
  Plant response rating, Morningglory: 0
morningglory; [5]
  Plant response rating, Morningglory: 0
Barnyardgrass [2]; 1000 g ai/ha
  Plant response rating, Barnyardgrass: 0
rice; 1000 g ai/ha
  Plant response rating, Rice: 0
crabgrass, large; [6]
  Plant response rating, Crabgrass, Large: 0
crabgrass, large; [3]
  Plant response rating, Crabgrass, Large: 40
crabgrass, large; [4]
  Plant response rating, Crabgrass, Large: 80
crabgrass, large; [5]
  Plant response rating, Crabgrass, Large: 90
velvetleaf; [6]
  Plant response rating, Velvetleaf: 0
velvetleaf; [3]
  Plant response rating, Velvetleaf: 0
velvetleaf; [4]
  Plant response rating, Velvetleaf: 0
velvetleaf; [5]
  Plant response rating, Velvetleaf: 0

## O=C1NCC(c2ccc(F)c(F)c2)C1C(=O)Nc1cccc2c1OC(F)(F)O2 (centres unmarked) [Compound 57]
pigweed; [7]
  Plant response rating, Pigweed: 0
pigweed; [3]
  Plant response rating, Pigweed: 0
pigweed; [8]
  Pigweed plant response rating: 0
pigweed; [9]
  Plant response rating, Pigweed: 0
Barnyardgrass [1]; [7]
  Plant response rating, Barnyardgrass: 70
Barnyardgrass [1]; [3]
  Plant response rating, Barnyardgrass: 80
Barnyardgrass [1]; [8]
  Barnyardgrass plant response rating: 40
Barnyardgrass [1]; preemergence, 500 g ai/ha, 0 to 100 scale (0 no effect, 100 complete control)
  Plant response rating, Barnyardgrass: 80
ducksalad; 250 g ai/ha
  Plant response rating, Ducksalad: 0
corn; [7]
  Plant response rating, Corn: 0
corn; [3]
  Plant response rating, Corn: 0
corn; [8]
  Corn plant response rating: 0
corn; [9]
  Plant response rating, Corn: 0
sedge, umbrella; 250 g ai/ha
  Plant response rating, Sedge, Umbrella: 0
wheat; [7]
  Plant response rating, Wheat: 0
wheat; [3]
  Plant response rating, Wheat: 0
wheat; [8]
  Wheat plant response rating: 0
wheat; [9]
  Plant response rating, Wheat: 0
Giant foxtail; [7]
  Plant response rating, Foxtail, Giant: 50
Giant foxtail; [3]
  Plant response rating, Foxtail, Giant: 60
Giant foxtail; [8]
  Foxtail, Giant plant response rating: 60
Giant foxtail; [9]
  Plant response rating, Foxtail, Giant: 80
morningglory; [7]
  Plant response rating, Morningglory: 0
morningglory; [3]
  Plant response rating, Morningglory: 0
morningglory; [8]
  Morningglory plant response rating: 0
morningglory; [9]
  Plant response rating, Morningglory: 0
Barnyardgrass [2]; 250 g ai/ha
  Plant response rating, Barnyardgrass: 0
rice; 250 g ai/ha
  Plant response rating, Rice: 0
crabgrass, large; [7]
  Plant response rating, Crabgrass, Large: 50
crabgrass, large; [3]
  Plant response rating, Crabgrass, Large: 70
crabgrass, large; [8]
  Crabgrass, Large plant response rating: 80
crabgrass, large; [9]
  Plant response rating, Crabgrass, Large: 90
velvetleaf; [7]
  Plant response rating, Velvetleaf: 0
velvetleaf; [3]
  Plant response rating, Velvetleaf: 0
velvetleaf; [8]
  Velvetleaf plant response rating: 0
velvetleaf; [9]
  Plant response rating, Velvetleaf: 0
